# According to patent publication US9409905B2, “Antibacterial compounds and methods for use” (PTC THERAPEUTICS, INC., priority 2011, dated 2016):
# Where two headings read alike, the source gives them in different places.
# Columns and labels:
# E. coli LZ3111 = test: Antibacterial activity, MIC, quinolone resistant strain (Table 2); type: cell-based; details: Escherichia coli, LZ3111, read-out: MIC LZ3111
# Procedure, shortened: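 MIC values (μg/mL) came from a microbroth dilution assay, scored as the lowest drug concentration at which no growth was visible by eye.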
# [1] = system: Pseudomonas aeruginosa (P. aeruginosa) 27853; test: Antibacterial activity, MIC (Table 5); type: cell-based
# Procedure, shortened: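 Values are MICs in μg/mL, read as the lowest concentration at which no growth is visible by eye. They were determined by a microbroth dilution method.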
# A. baumannii MXX2240 = test: Antibacterial activity, MIC, resistant strain (Table 4); type: cell-based; details: Acinetobacter baumannii
# Procedure, shortened: (§1)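 The resistant panel comprises multi-drug resistant clinical isolates. All strains were tested by microbroth dilution, with the MIC in μg/mL taken as the lowest concentration that prevented macroscopically visible growth.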
# K. pneumoniae MXX1232 = test: as above; type: cell-based; details: Klebsiella pneumoniae
# Procedure, shortened: as §1
# E. coli 25922 = test: Antibacterial activity, microbroth dilution MIC (Table 1); type: cell-based, Escherichia coli
# Procedure, shortened: (§2)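 MIC (μg/mL) is taken as the lowest concentration with no macroscopically visible growth. Strains tested by microbroth dilution: Gram-positive S. aureus 29213, control Gram-negative E. coli 25922, and super-sensitive E. coli BAS849.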
# [2] = system: Staphylococcus aureus (S. aureus) 29213; test: as above; type: cell-based
# Procedure, shortened: as §2
# [3] = system: Escherichia coli (E. coli) BAS849; test: as above; type: cell-based
# Procedure, shortened: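 Microbroth dilution was used. MIC, in μg/mL, is the lowest drug concentration preventing macroscopically visible growth under the test conditions.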
# [4] = system: Klebsiella pneumoniae (K. pneumoniae) 35657; test: Antibacterial activity, MIC (Table 4); type: cell-based
# Procedure, shortened: as §1
# [5] = system: Acinetobacter baumannii (A. baumannii) BAA747; test: Antibacterial activity, MIC (Table 4); type: cell-based
# Procedure, shortened: as §1
# [6] = P. aeruginosa 27853, read-out: MIC, 27853
# [7] = MXX2240, resistant A. baumannii MMX2240, multi-drug resistant clinical isolate, read-out: MIC, MMX2240
# [8] = MXX1232, resistant K. pneumoniae MMX1232, multi-drug resistant clinical isolate, read-out: MIC, MMX1232
# [9] = Escherichia coli, microbroth dilution, control Gram-negative E. coli 25922 strain, read-out: MIC, 25922
# [10] = microbroth dilution, Gram-positive S. aureus 29213, read-out: MIC, 29213
# [11] = microbroth dilution, super sensitive Gram-negative E. coli BAS849, read-out: MIC, BAS849
# [12] = K. pneumoniae 35657, read-out: MIC, 35657
# [13] = A. baumannii BAA747, read-out: MIC, BAA747
# [14] = MXX2240, read-out: MIC, MMX2240
# [15] = MXX1232, read-out: MIC, MMX1232
# [16] = Escherichia coli, 25922, read-out: MIC, 25922
SMILES,MIC (E. coli LZ3111),"MIC [1, 6]",MIC (A. baumannii MXX2240; [7]),MIC (K. pneumoniae MXX1232; [8]),MIC (E. coli 25922; [9]),"MIC [2, 10]","MIC [3, 11]","MIC [4, 12]","MIC [5, 13]","MIC ([1]; read-out: MIC, 27853)",MIC (A. baumannii MXX2240; [14]),MIC (K. pneumoniae MXX1232; [15]),MIC (E. coli 25922; [16]),"MIC ([2]; read-out: MIC, 29213)","MIC ([3]; read-out: MIC, BAS849)","MIC ([4]; read-out: MIC, 35657)","MIC ([5]; BAA747, read-out: MIC, BAA747)"
"CCc1c(-c2ccc3c(ccn3-c3ccccn3)c2)[nH]c(=O)c(C(=O)O)c1O [Cpd 436, 5-ethyl-4-hydroxy-2-oxo-6-(1-(pyridin-2-yl)-1H-indol-5-yl)-1,2-dihydropyridine-3-carboxylic acid]",12.5 to 150 µg/mL,12.5 to 150 µg/mL,12.5 to 150 µg/mL,12.5 to 150 µg/mL,12.5 to 150 µg/mL,1 to 3.5 µg/mL,< 1 µg/mL,12.5 to 150 µg/mL,12.5 to 150 µg/mL,–,–,–,–,–,–,–,–
"CCc1c(-c2ccc3c(ccn3-c3ccc(C(F)(F)F)cc3)c2)[nH]c(=O)c(C(=O)O)c1O [Cpd 437, 5-ethyl-4-hydroxy-2-oxo-6-(1-(4-(trifluoromethyl)phenyl)-1H-indol-5-yl)-1,2-dihydropyridine-3-carboxylic acid]",12.5 to 150 µg/mL,12.5 to 150 µg/mL,12.5 to 150 µg/mL,12.5 to 150 µg/mL,12.5 to 150 µg/mL,3.5 to 12.5 µg/mL,< 1 µg/mL,12.5 to 150 µg/mL,12.5 to 150 µg/mL,–,–,–,–,–,–,–,–
"CCc1c(-c2ccc3c(ccn3-c3ccc(F)cc3)c2)[nH]c(=O)c(C(=O)O)c1O [Cpd 438, 5-ethyl-6-(1-(4-fluorophenyl)-1H-indol-5-yl)-4-hydroxy-2-oxo-1,2-dihydropyridine-3-carboxylic acid]",12.5 to 150 µg/mL,12.5 to 150 µg/mL,12.5 to 150 µg/mL,12.5 to 150 µg/mL,12.5 to 150 µg/mL,< 1 µg/mL,< 1 µg/mL,12.5 to 150 µg/mL,12.5 to 150 µg/mL,–,–,–,–,–,–,–,–
"CCc1c(-c2ccc3c(ccn3-c3cccc(N4CCCC4)c3)c2)[nH]c(=O)c(C(=O)O)c1O [Cpd 439, 5-ethyl-4-hydroxy-2-oxo-6-(1-(3-(pyrrolidin-1-yl)phenyl)-1H-indol-5-yl)-1,2-dihydropyridine-3-carboxylic acid]",12.5 to 150 µg/mL,12.5 to 150 µg/mL,12.5 to 150 µg/mL,12.5 to 150 µg/mL,12.5 to 150 µg/mL,3.5 to 12.5 µg/mL,1 to 3.5 µg/mL,12.5 to 150 µg/mL,12.5 to 150 µg/mL,–,–,–,–,–,–,–,–
"CCc1c(-c2ccc3c(ccn3-c3ccc(N4CCCC4)cc3)c2)[nH]c(=O)c(C(=O)O)c1O [Cpd 440, 5-ethyl-4-hydroxy-2-oxo-6-(1-(4-(pyrrolidin-1-yl)phenyl)-1H-indol-5-yl)-1,2-dihydropyridine-3-carboxylic acid]",12.5 to 150 µg/mL,12.5 to 150 µg/mL,12.5 to 150 µg/mL,12.5 to 150 µg/mL,12.5 to 150 µg/mL,12.5 to 150 µg/mL,12.5 to 150 µg/mL,12.5 to 150 µg/mL,12.5 to 150 µg/mL,–,–,–,–,–,–,–,–
"CCc1c(-c2ccc3cc(CN(C)C)[nH]c3c2)[nH]c(=O)c(C(=O)O)c1O.Cl [Cpd 441, 6-(2-((dimethylamino)methyl)-1H-indol-6-yl)-5-ethyl-4-hydroxy-2-oxo-1,2-dihydropyridine-3-carboxylic acid hydrochloride]",12.5 to 150 µg/mL,12.5 to 150 µg/mL,3.5 to 12.5 µg/mL,12.5 to 150 µg/mL,< 1 µg/mL,1 to 3.5 µg/mL,< 1 µg/mL,< 1 µg/mL,1 to 3.5 µg/mL,–,–,–,–,–,–,–,–
"CCNCc1cc2ccc(-c3[nH]c(=O)c(C(=O)O)c(O)c3CC)cc2[nH]1.Cl [Cpd 442, 5-ethyl-6-(2-((ethylamino)methyl)-1H-indol-6-yl)-4-hydroxy-2-oxo-1,2-dihydropyridine-3-carboxylic acid hydrochloride]",12.5 to 150 µg/mL,12.5 to 150 µg/mL,12.5 to 150 µg/mL,12.5 to 150 µg/mL,3.5 to 12.5 µg/mL,12.5 to 150 µg/mL,1 to 3.5 µg/mL,3.5 to 12.5 µg/mL,12.5 to 150 µg/mL,–,–,–,–,–,–,–,–
"CCc1c(-c2ccc3cc(CNC(C)CC)[nH]c3c2)[nH]c(=O)c(C(=O)O)c1O.Cl (stereo not drawn) [Cpd 443, 6-(2-((sec-butylamino)methyl)-1H-indol-6-yl)-5-ethyl-4-hydroxy-2-oxo-1,2-dihydropyridine-3-carboxylic acid hydrochloride]",3.5 to 12.5 µg/mL,12.5 to 150 µg/mL,3.5 to 12.5 µg/mL,12.5 to 150 µg/mL,3.5 to 12.5 µg/mL,3.5 to 12.5 µg/mL,1 to 3.5 µg/mL,3.5 to 12.5 µg/mL,12.5 to 150 µg/mL,–,–,–,–,–,–,–,–
"CCNCc1cc2ccc(-c3[nH]c(=O)c(C(=O)O)c(O)c3C)cc2[nH]1.Cl [Cpd 444, 6-(2-((ethylamino)methyl)-1H-indol-6-yl)-4-hydroxy-5-methyl-2-oxo-1,2-dihydropyridine-3-carboxylic acid hydrochloride]",12.5 to 150 µg/mL,12.5 to 150 µg/mL,12.5 to 150 µg/mL,12.5 to 150 µg/mL,12.5 to 150 µg/mL,12.5 to 150 µg/mL,12.5 to 150 µg/mL,12.5 to 150 µg/mL,12.5 to 150 µg/mL,–,–,–,–,–,–,–,–
"CCc1c(-c2ccc3c4c([nH]c3c2)CNCC4)[nH]c(=O)c(C(=O)O)c1O [Cpd 445, 5-ethyl-4-hydroxy-2-oxo-6-(2,3,4,9-tetrahydro-1H-pyrido[3,4-b]indol-7-yl)-1,2-dihydropyridine-3-carboxylic acid]",12.5 to 150 µg/mL,12.5 to 150 µg/mL,12.5 to 150 µg/mL,12.5 to 150 µg/mL,12.5 to 150 µg/mL,12.5 to 150 µg/mL,3.5 to 12.5 µg/mL,3.5 to 12.5 µg/mL,12.5 to 150 µg/mL,–,–,–,–,–,–,–,–
"CCc1c(-c2ccc3c4c([nH]c3c2)CN(C)CC4)[nH]c(=O)c(C(=O)O)c1O [Cpd 446, 5-ethyl-4-(hydroxy)-6-(2-methyl-2,3,4,9-tetrahydro-1H-pyrido[3,4-b]indol-7-yl)-2-oxo-1,2-dihydropyridine-3-carboxylic acid]",1 to 3.5 µg/mL,–,–,–,–,–,–,–,–,3.5 to 12.5 µg/mL,12.5 to 150 µg/mL,12.5 to 150 µg/mL,1 to 3.5 µg/mL,12.5 to 150 µg/mL,< 1 µg/mL,< 1 µg/mL,3.5 to 12.5 µg/mL
"CCc1c(-c2ccc3c4c([nH]c3c2)CN(CC)CC4)[nH]c(=O)c(C(=O)O)c1O [Cpd 447, 5-ethyl-6-(2-ethyl-2,3,4,9-tetrahydro-1H-pyrido[3,4-b]indol-7-yl)-4-hydroxy-2-oxo-1,2-dihydropyridine-3-carboxylic acid]",3.5 to 12.5 µg/mL,–,–,–,–,–,–,–,–,12.5 to 150 µg/mL,12.5 to 150 µg/mL,12.5 to 150 µg/mL,< 1 µg/mL,12.5 to 150 µg/mL,< 1 µg/mL,< 1 µg/mL,3.5 to 12.5 µg/mL
"CCCN1CCc2c([nH]c3cc(-c4[nH]c(=O)c(C(=O)O)c(O)c4CC)ccc23)C1 [Cpd 448, 5-ethyl-4-hydroxy-2-oxo-6-(2-propyl-2,3,4,9-tetrahydro-1H-pyrido[3,4-b]indol-7-yl)-1,2-dihydropyridine-3-carboxylic acid]",3.5 to 12.5 µg/mL,–,–,–,–,–,–,–,–,12.5 to 150 µg/mL,3.5 to 12.5 µg/mL,12.5 to 150 µg/mL,< 1 µg/mL,12.5 to 150 µg/mL,< 1 µg/mL,1 to 3.5 µg/mL,3.5 to 12.5 µg/mL
